Measurements published in PMC9029089, “1,5-Disubstituted Acylated 2-Amino-4,5-dihydroimidazoles as a New Class of Retinoic Acid Receptor–Related Orphan Receptor (ROR) Inhibitors” (International Journal of Molecular Sciences, 2022).
Read-outs that look alike come from different tables or passages of the source.

Experiments:
RORα = target: T1, RORα (Homo sapiens, UniProt P35398); assay: Gal4-RORα-LBD UAS-luciferase reporter assay in TRex-CHO-K1 cells (doxycycline-stimulated); type: cell-based
T1 construct: hRORα (Pro-211-end); expressed in transfected cells
T1 sequence (P35398 266-523): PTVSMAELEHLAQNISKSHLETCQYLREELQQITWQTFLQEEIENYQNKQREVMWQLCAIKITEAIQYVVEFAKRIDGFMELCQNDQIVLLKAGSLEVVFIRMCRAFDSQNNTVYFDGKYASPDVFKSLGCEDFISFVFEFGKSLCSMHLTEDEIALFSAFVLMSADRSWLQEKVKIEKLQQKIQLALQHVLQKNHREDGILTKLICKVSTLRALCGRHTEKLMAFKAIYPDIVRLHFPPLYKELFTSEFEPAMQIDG
Description: The Gal4-DBD-ROR-LBD fusion proteins were subcloned in the pcDNA4/TO expression vector (Thermo Scientific) and transfected into TRex-CHO-K1 cells (Thermo Scientific) for tetracycline-controlled expression of the corresponding ROR proteins. Transfected cells were selected with hygromycin and Zeocin and individual clones for each of the Gal4-RORγ, Gal4-RORα, and Gal4-RORβ cell lines were isolated using a standard serial dilution protocol. Clones with the highest doxycycline-dependent stimulation of luciferase activity were selected for all functional experiments.
For screening FIU libraries, cells were resuspended in Ham’s F-12 assay medium containing 2% charcoal-treated FBS and no selection drugs. […] Cells were allowed to attach for 2 h, followed by compound treatment and stimulation with 20 ng/mL doxycycline for an additional 16–20 h. Appropriate solvent controls, negative controls with no doxycycline, and blanks with no cells were included in every plate. Prior to measuring luciferase activity, 6 µL of 0.15 mg/mL resazurin (Cayman Chemical) in PBS were added and cells were incubated for 1 h at 37 °C. Fluorescence intensity was detected at 545 nm excitation/590 nm emission using a CLARIOstar reader (BMGLabtech) as a measure of cell viability, to identify any potential cytotoxic effect of test compounds and mixtures.
(§1) Luminescence was normalized by the fluorescence intensity and the percentage of inhibition was calculated with respect to control cells stimulated with doxycycline in the presence of solvent control (0.1% DMF). All primary screens with individual compounds were performed in triplicate with a final concentration of 5 µg/mL. […] IC50 values were calculated using GraphPrism (GraphPad software).

RORβ = target: T2, RORβ (Rattus norvegicus, UniProt P45446); assay: Gal4-RORβ-LBD UAS-luciferase reporter assay in TRex-CHO-K1 cells (doxycycline-stimulated); type: cell-based
T2 construct: rRORβ (Pro 205-end); expressed in transfected cells
T2 sequence (P45446 205-459 isoform P45446-1): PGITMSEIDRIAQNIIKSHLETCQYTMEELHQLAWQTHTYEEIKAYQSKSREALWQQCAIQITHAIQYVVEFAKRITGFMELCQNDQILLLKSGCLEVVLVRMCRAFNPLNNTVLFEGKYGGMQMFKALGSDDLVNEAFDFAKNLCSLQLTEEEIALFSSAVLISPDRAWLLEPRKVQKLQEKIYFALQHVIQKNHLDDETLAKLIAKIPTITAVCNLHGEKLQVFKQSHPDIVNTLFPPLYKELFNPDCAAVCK
Description: To investigate the transcriptional activity of all three RORs, we generated stable cell lines expressing an UAS-driven luciferase reporter together with the corresponding Gal4-DNA binding domain fused to the ligand binding domains (LBDs) of mRORγ (Pro-261-end), hRORα (Pro-211-end), or rRORβ (Pro 205-end). The Gal4-DBD-ROR-LBD fusion proteins were subcloned in the pcDNA4/TO expression vector (Thermo Scientific) and transfected into TRex-CHO-K1 cells (Thermo Scientific) for tetracycline-controlled expression of the corresponding ROR proteins. Transfected cells were selected with hygromycin and Zeocin and individual clones for each of the Gal4-RORγ, Gal4-RORα, and Gal4-RORβ cell lines were isolated using a standard serial dilution protocol. Clones with the highest doxycycline-dependent stimulation of luciferase activity were selected for all functional experiments. All cell lines were maintained in complete Ham’s F12 medium containing 10% fetal bovine serum (FBS), 10 µg/mL blasticidine, 100 µg/mL hygromycin, and 100 µg/mL Zeocin and were used within 2 months of culture without any loss of doxycycline-dependent stimulation of luciferase activity.
(§2) For screening FIU libraries, cells were resuspended in Ham’s F-12 assay medium containing 2% charcoal-treated FBS and no selection drugs. Ten thousand cells per well were seeded in 30 µL of assay medium in 384 white plates with clear bottom (Greiner). Cells were allowed to attach for 2 h, followed by compound treatment and stimulation with 20 ng/mL doxycycline for an additional 16–20 h. Appropriate solvent controls, negative controls with no doxycycline, and blanks with no cells were included in every plate. Prior to measuring luciferase activity, 6 µL of 0.15 mg/mL resazurin (Cayman Chemical) in PBS were added and cells were incubated for 1 h at 37 °C. Fluorescence intensity was detected at 545 nm excitation/590 nm emission using a CLARIOstar reader (BMGLabtech) as a measure of cell viability, to identify any potential cytotoxic effect of test compounds and mixtures. Following the resazurin assay, the medium was removed and 20 µL of BriteLite-Plus luciferase reagent (Perking Elmer) were added; luminescence was measured in a CLARIOstar reader using a 384 aperture spoon and a 0.1 sec measuring time interval.
as §1

RORγ [1] = target: T3, RORγ (Mus musculus, UniProt P51450); assay: Gal4-RORγ-LBD UAS-luciferase reporter assay in TRex-CHO-K1 cells (doxycycline-stimulated); type: cell-based
T3 construct: mRORγ (Pro-261-end); expressed in transfected cells
T3 sequence (P51450 261-516 limits assumed): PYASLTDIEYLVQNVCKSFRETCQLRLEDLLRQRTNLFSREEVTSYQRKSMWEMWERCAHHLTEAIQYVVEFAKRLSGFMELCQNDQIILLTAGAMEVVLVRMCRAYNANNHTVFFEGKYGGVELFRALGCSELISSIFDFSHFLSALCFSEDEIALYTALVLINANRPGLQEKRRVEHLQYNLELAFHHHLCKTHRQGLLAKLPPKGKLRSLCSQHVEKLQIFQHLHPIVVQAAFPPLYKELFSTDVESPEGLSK

RORγ [2] = target: T3, RORγ; assay: as above; type: cell-based; conditions: for % Inhibition at 4 μM (N=3): library 2520, RORγ cells; for inhibition at 4 µM: T-REx-CHO-K1, library 2520, RORγ cells, read-out: % Inhibition at 4 μM (N=3)
[3] = test system: TRex-CHO-luciferase-RORγ cells; assay: resazurin cell viability assay; type: cell-based; conditions: 5 µg/mL
Method: as §2

Th17 cells = test system: Th17 cells; set-up: method as in PMID 21441909, PMID 21499262, PMID 21566134; conditions: RORγ inverse agonists; cited from earlier work
[4] = test system: experimental autoimmune encephalomyelitis mouse model; set-up: method as in PMID 21441909, PMID 21499262, PMID 21566134; conditions: EAE mouse model; cited from earlier work
[5] = read-out: IC50 (μM, N=4) ROR-Alpha, library 2520
[6] = read-out: IC50 (μM, N=4) ROR-Beta, library 2520
[7] = read-out: IC50 (μM, N=4) ROR-Gamma, library 2520
[8] = IC50 (μM, N=4) ROR-Alpha, library 2520
[9] = RORα : IC50, Figure 6, confirmatory experiment, N = 4
[10] = IC50 (μM, N=4) ROR-Beta, library 2520
[11] = IC50 (μM, N=4) ROR-Gamma, library 2520
[12] = RORγ : IC50, Figure 6, confirmatory experiment, N = 4
[13] = Figure 6, confirmatory experiment, N = 4, read-out: RORβ : IC50

Row | Compound | IC50 (RORα; [5]) | IC50 (RORβ; [6]) | IC50 (RORγ [1]; [7]) | % Inhibition at 4 μM (N=3) (RORγ [2]) | IC50 (RORα; [8]) | IC50 (RORβ; [10]) | IC50 (RORγ [1]; [11]) | IC50 (RORγ [1]; [12]) | inhibition at 4 µM (RORγ [2]) | suppression of Th17 differentiation (Th17 cells) | suppression of the onset of disease [4] | also measured
1 | CCOc1ccc(CC2CN=C(NC(=O)Cc3ccc(OC)cc3)N2CCC(C)c2ccccc2)cc1 (mixture of isomers) [2520.46] | 5.82 ± 0.3 µM | 5.46 ± 0.3 µM | 5.31 ± 0.2 µM | 67.3% |  |  |  |  |  |  |  | 
2 | O=C(Cc1ccccc1)NC1=NC[C@H](Cc2ccccc2)N1CCC12CC3CC(CC(C3)C1)C2 [1295.271] |  |  |  |  |  |  |  |  |  |  |  | toxicity as determined by a resazurin assay [3]: significant toxicity; % Inhibition RORγ 5 μg/ml (RORγ [1]; individual controls 1295.201-307, 5 μg/ml, triplicate): 36.0%
3 | CCC(C(=O)NC1=NC[C@H](Cc2ccccc2)N1CCC(C)c1ccccc1)c1ccccc1 (stereo partly drawn) [2520.31] |  |  |  |  | 6.82 ± 0.4 µM | 5.5 ± 0.3 µM | 3.95 ± 0.3 µM | 3.9 ± 0.3 µM | 70.5% |  |  | IC50 (RORα; [9]): 6.8 ± 0.4 µM
4 | CCOc1ccc(C[C@H]2CN=C(NC(=O)C(CC)c3ccccc3)N2CC2CCCCC2)cc1 (stereo partly drawn) [2520.39] |  |  |  |  | 6.36 ± 0.3 µM | 5.34 ± 0.4 µM | 4.36 ± 0.2 µM | 4.3 ± 0.2 µM | 73.2% |  |  | IC50 (RORα; [9]): 6.3 ± 0.3 µM; IC50 (RORβ; [13]): 5.3 ± 0.4 µM
5 | CCOc1ccc(C[C@H]2CN=C(NC(=O)Cc3ccc(OC)cc3)N2CC2CCCCC2)cc1 [2520.42] | 5.4 ± 0.4 µM | 5.21 ± 0.3 µM | 5.17 ± 0.8 µM | 96.5% |  |  |  |  |  |  |  | 
6 | CCOc1ccc(C[C@H]2CN=C(NC(=O)C(CC)c3ccccc3)N2CCC2CC3CCC2C3)cc1 (stereo partly drawn) [2520.47] |  |  |  |  | 7.2 ± 0.4 µM | 6.67 ± 0.4 µM | 4.68 ± 0.2 µM | 4.6 ± 0.2 µM | 51.3% |  |  | IC50 (RORβ; [13]): 6.6 ± 0.4 µM
7 | CCOc1ccc(C[C@H]2CN=C(NC(=O)C(C)C)N2CC2CCCCC2)cc1 [2520.48] | 9.61 ± 0.5 µM | 6.57 ± 0.5 µM | 9.27 ± 0.4 µM | 69.2% |  |  |  |  |  |  |  | 
8 | CC(=O)Nc1nc(C)c(S(=O)(=O)Nc2ccc(C(O)(C(F)(F)F)C(F)(F)F)cc2)s1 [SR1001] |  |  |  |  |  |  |  |  |  | suppress Th17 differentiation | suppress Th17 differentiation and the onset of disease | 
9 | C[C@H]1O[C@@H](O[C@H]2[C@@H](O)C[C@H](O[C@H]3[C@@H](O)C[C@H](O[C@H]4CC[C@@]5(C)[C@H](CC[C@@H]6[C@@H]5C[C@@H](O)[C@]5(C)[C@@H](C7=CC(=O)OC7)CC[C@]65O)C4)O[C@@H]3C)O[C@@H]2C)C[C@H](O)[C@@H]1O [digoxin] |  |  |  |  |  |  |  |  |  | suppress Th17 differentiation | suppress Th17 differentiation and the onset of disease | 
10 | C[C@H]1[C@H](C)CC[C@]2(C(=O)O)CC[C@]3(C)C(=CC[C@@H]4[C@@]5(C)CC[C@H](O)C(C)(C)[C@@H]5CC[C@]43C)[C@H]12 [ursolic acid] |  |  |  |  |  |  |  |  |  | suppress Th17 differentiation | suppress Th17 differentiation and the onset of disease | 
